Results reported in US20230190680A1, “METHODS AND COMPOSITIONS FOR TREATING AN RNA VIRUS INDUCED DISEASE” (Golden Biotechnology Corporation, priority 2020, published 2023).
Like-named read-outs stand apart in the source and are kept apart here.

Tests used:
HBeAg = test: ELISA of HBeAg in HepG2.2.15 supernatants; assay type: cell-based, HBV; settings: 72 hours, FIG. 1A
Procedure: (§1) Cell Culture. HepG2.2.15 cell line was cultured in MEM medium, supplemented with 10% fetal bovine serum, penicillin (100 IU/ml; Gibco, USA), and streptomycin (100 ug/ml; Gibco, USA) in 5% CO2 incubator at 37° C. This is a cell line derived from human hepatoblastoma cell line HepG2 and characterized by having stable HBV expression. Qs5 is HBV-producing rat hepatoma cell lines.
(§2) Lamivudine (3TC) and Adefovir dipivoxil (Adv) are marketed for HBV treatment as positive controls. Antroquinonol (G4) and Lamivudine (3TC) dissolved in dimethylsulfoxide (DMSO) only for stock solutions and diluted in culture medium. The final concentration of DMSO in cells is less 0.1%. Drugs treated with 2×10^4 cells in 96-well plate for 72 hours.
(§3) The levels of HBsAg and HBeAg in HepG2.2.15 supernatants were measured using their commercial enzyme-linked immunosorbent assay (ELISA) kits following the manufacturer’s instructions.
(§4) To examine the effect of Antroquinonol on HBV protein expression, including surface antigen (HBsAg) and e antigen (HBeAg), ELISA assay was used to quantify HBV replication. The study results have shown that Compound 1 (i.e., Antroquinonol) reduces HBeAg (see FIG. 1A) and HBsAg (see FIG. 1B) expression levels. Compound 1 in comparison with Lamivudine, has shown reduction in the expression levels of the two major HBV biomarkers, HBeAg and HBsAg by 50% and 40% respectively.

HBsAg = test: ELISA of HBsAg in HepG2.2.15 supernatants; assay type: cell-based, HBV; settings: 72 hours, FIG. 1B
Procedure: as §1, §2, §3, §4

HCV RNA = HCV RNA activity (FIG. 2B); assay type: cell-based
HepG2.2.15 cells = test: MTT assay (cytotoxicity); assay type: cell-based, human
Procedure: as §1
MTT assay. 1.25 ×10^5 cells/well were seeded onto 24-well plate. Cells were incubated with varying concentrations of G4 and 3TC (1, 5, 25, 50, 100 and 200 uM) for 72 hours. 1 mg/ml 3-(4, 5-dimethylthiazol-2-yl)-2, 5- diphenyltetrazolium- bromide (MTT) was added to each well and incubated for 2 hours at 37° C. to allow formation of the colored crystals. Medium was replaced with DMSO and plates were incubated for 15 minutes at room temperature with shaking to dissolve the crystals. The absorbance was measured by the microplate reader. The optical density was measured at 490 nm.

NF-kB = test: Renal inflammation, NF-kB activation model (FIG. 7): NF-kB expression; assay type: in vivo
Nrf-2 = test: Renal inflammation, NF-kB activation model (FIG. 7): nuclear Nrf-2 expression; assay type: in vivo
MCP-1 = test: Local renal inflammation marker MCP-1 (FIG. 8); assay type: in vivo
IL-6 = test: Local renal inflammation marker IL-6 (FIG. 8); assay type: in vivo
CD3 = test: Local renal inflammation marker CD3 (FIG. 8); assay type: in vivo
SARS-CoV-2 = assay type: cell-based; settings: Vero E6 cells, MOI = 0.1, 24 h, FIG. 10
CXCL10 = assay type: cell-based; settings: DMSO 9.04 fold
IL6 = assay type: cell-based; settings: 10 µM; DMSO 47.81-fold; FIG. 12B
IL18 = assay type: cell-based; settings: 20 µM, DMSO 1.36-fold
TGFB1 = assay type: cell-based; settings: 20 µM, DMSO 2.59-fold
COL4A1 = assay type: cell-based; settings: 20 µM; DMSO 2.37-fold; FIG. 13B

SMILES: COC1=C(OC)C(O)C(C/C=C(\C)CC/C=C(\C)CCC=C(C)C)C(C)C1=O (stereo not drawn) [Compound 1, 4-hydroxy-2,3-dimethoxy-6-methyl-5-(3,7,11-trimethyldodeca-2,6,10-trienyl)cyclohex-2-enone]
- reduction in the expression level of HBeAg (HBeAg): 50%
- reduction in the expression level of HBsAg (HBsAg): 40%
- reduction in HCV RNA activity (HCV RNA): 95%
- cytotoxicity by MTT assay (HepG2.2.15 cells; over 25 uM): cytotoxicity effects
- cytotoxicity by MTT assay (HepG2.2.15 cells; up to exposure to 5 uM): No apparent cytotoxicity
- suppression in NF-kB expression (NF-kB): 36%
- enhancement in nuclear Nrf-2 expression (Nrf-2): 2 times
- suppression of MCP-1 expression (MCP-1): around 50%
- suppression of IL-6 expression (IL-6): ~57%
- suppression of CD3 expression (CD3): ~66%
- reduction of SARS-CoV-2 concentration (SARS-CoV-2; 10 µM): 91.20%
- reduction of SARS-CoV-2 concentration (SARS-CoV-2; 20 µM): 99.93%
- change in CXCL10 expression (CXCL10; 10 µM): 3.40 fold
- change in CXCL10 expression (CXCL10; 20 µM): 1.01 fold
- change in IL6 expression (IL6): 11.88 fold
- change in IL18 expression (IL18): 0.89 fold
- change in TGFB1 expression (TGFB1): 0.99 fold
- change in COL4A1 expression (COL4A1): 0.65 fold
